ChEMBL document CHEMBL3091334, “Design and synthesis of novel 3-(benzo[d]oxazol-2-yl)-5-(1-(piperidin-4-yl)-1H-pyrazol-4-yl)pyridin-2-amine derivatives as selective G-protein-coupled receptor kinase-2 and -5 inhibitors” (Bioorg Med Chem Lett, 2013)

Columns and labels:
[1] = target: G protein-coupled receptor kinase 5 (Homo sapiens, UniProt P34947)
Description: Inhibition of GRK-5 (unknown origin) preincubated with enzyme for 10 mins before adding peptide substrate and ATP measured after 1 hr by LANCE-TR-FRET assay

[2] = target: T1, Beta-adrenergic receptor kinase 1 (Homo sapiens, UniProt P25098); test: Inhibition of GRK-2 (unknown origin) preincubated with enzyme for 10 mins before adding peptide substrate and ATP measured after 1 hr by LANCE-TR-FRET assay
T1 sequence (P25098 whole entry): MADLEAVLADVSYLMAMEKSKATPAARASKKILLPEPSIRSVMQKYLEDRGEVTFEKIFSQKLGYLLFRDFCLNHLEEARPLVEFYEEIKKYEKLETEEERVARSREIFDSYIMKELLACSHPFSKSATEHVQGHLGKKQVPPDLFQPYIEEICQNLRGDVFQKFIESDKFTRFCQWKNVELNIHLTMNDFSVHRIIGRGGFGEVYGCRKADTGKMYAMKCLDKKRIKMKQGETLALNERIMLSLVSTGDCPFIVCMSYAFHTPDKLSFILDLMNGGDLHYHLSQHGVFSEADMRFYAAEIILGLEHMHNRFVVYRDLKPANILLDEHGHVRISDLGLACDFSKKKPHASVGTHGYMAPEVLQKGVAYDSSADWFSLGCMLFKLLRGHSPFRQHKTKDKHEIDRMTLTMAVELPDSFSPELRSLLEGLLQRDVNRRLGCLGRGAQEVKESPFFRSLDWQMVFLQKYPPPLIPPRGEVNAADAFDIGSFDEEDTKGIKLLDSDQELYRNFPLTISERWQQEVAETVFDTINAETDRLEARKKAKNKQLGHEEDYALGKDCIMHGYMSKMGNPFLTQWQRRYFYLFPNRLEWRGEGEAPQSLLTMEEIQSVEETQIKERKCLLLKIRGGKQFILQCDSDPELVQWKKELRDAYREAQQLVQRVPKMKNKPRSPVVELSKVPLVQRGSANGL

[3] = target: ALK tyrosine kinase receptor (Homo sapiens, UniProt Q9UM73); test: Inhibition of ALK (unknown origin)
[4] = target: Hepatocyte growth factor receptor (Homo sapiens, UniProt P08581); test: Inhibition of c-Met (unknown origin)
Hepatocyte growth factor receptor, sequence (P08581 whole entry): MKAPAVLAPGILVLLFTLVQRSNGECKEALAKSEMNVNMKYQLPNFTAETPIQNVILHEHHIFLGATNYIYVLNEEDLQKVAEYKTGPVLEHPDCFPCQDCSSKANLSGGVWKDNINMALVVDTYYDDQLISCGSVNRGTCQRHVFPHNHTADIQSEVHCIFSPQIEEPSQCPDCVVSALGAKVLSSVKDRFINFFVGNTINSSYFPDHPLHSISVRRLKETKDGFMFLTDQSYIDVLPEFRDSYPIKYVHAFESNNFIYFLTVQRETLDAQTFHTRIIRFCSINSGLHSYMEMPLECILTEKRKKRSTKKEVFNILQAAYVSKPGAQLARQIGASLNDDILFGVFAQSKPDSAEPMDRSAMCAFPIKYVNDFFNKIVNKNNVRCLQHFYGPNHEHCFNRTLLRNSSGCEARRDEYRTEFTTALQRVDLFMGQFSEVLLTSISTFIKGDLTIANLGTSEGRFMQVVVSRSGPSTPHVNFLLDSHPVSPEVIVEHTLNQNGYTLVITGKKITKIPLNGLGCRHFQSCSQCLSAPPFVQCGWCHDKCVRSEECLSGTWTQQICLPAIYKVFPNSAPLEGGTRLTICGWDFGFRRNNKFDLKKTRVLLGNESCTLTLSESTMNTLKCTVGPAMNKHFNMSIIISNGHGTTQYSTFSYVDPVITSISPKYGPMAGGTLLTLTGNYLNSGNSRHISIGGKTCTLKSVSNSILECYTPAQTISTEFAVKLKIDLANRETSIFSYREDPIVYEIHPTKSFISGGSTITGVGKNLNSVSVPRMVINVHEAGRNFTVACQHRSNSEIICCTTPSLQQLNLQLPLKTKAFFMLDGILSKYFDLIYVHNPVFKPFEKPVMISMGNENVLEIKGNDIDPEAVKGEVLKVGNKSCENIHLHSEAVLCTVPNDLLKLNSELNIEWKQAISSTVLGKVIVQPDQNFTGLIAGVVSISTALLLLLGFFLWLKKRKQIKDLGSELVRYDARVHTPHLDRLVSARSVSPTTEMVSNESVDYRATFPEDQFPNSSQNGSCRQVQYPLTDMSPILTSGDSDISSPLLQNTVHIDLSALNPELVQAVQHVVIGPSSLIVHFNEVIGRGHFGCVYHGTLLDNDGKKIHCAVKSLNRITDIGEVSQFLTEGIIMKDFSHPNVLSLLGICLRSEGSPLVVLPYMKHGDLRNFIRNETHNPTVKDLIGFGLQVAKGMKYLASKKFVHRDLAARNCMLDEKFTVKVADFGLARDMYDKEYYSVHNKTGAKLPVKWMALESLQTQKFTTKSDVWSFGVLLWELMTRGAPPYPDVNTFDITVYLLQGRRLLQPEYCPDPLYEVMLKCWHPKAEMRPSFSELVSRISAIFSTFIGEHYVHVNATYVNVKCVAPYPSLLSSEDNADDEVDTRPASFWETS

G protein-coupled receptor kinase 5, sequence (P34947 whole entry): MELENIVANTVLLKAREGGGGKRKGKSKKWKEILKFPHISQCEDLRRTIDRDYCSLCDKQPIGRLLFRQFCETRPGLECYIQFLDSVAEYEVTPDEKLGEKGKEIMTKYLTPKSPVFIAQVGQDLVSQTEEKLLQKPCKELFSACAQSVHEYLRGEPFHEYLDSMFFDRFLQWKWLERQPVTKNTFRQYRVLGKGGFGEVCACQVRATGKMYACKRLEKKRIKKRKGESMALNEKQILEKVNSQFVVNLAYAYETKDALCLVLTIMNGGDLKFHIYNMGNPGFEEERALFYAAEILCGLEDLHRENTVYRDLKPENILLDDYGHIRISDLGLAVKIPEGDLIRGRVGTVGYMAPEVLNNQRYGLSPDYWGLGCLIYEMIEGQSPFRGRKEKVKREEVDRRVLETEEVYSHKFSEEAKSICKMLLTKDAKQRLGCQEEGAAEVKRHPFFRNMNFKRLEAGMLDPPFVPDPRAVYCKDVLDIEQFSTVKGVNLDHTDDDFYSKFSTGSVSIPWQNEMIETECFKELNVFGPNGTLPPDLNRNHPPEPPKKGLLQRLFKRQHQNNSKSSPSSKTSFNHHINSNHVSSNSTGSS
ALK tyrosine kinase receptor, sequence (Q9UM73 whole entry): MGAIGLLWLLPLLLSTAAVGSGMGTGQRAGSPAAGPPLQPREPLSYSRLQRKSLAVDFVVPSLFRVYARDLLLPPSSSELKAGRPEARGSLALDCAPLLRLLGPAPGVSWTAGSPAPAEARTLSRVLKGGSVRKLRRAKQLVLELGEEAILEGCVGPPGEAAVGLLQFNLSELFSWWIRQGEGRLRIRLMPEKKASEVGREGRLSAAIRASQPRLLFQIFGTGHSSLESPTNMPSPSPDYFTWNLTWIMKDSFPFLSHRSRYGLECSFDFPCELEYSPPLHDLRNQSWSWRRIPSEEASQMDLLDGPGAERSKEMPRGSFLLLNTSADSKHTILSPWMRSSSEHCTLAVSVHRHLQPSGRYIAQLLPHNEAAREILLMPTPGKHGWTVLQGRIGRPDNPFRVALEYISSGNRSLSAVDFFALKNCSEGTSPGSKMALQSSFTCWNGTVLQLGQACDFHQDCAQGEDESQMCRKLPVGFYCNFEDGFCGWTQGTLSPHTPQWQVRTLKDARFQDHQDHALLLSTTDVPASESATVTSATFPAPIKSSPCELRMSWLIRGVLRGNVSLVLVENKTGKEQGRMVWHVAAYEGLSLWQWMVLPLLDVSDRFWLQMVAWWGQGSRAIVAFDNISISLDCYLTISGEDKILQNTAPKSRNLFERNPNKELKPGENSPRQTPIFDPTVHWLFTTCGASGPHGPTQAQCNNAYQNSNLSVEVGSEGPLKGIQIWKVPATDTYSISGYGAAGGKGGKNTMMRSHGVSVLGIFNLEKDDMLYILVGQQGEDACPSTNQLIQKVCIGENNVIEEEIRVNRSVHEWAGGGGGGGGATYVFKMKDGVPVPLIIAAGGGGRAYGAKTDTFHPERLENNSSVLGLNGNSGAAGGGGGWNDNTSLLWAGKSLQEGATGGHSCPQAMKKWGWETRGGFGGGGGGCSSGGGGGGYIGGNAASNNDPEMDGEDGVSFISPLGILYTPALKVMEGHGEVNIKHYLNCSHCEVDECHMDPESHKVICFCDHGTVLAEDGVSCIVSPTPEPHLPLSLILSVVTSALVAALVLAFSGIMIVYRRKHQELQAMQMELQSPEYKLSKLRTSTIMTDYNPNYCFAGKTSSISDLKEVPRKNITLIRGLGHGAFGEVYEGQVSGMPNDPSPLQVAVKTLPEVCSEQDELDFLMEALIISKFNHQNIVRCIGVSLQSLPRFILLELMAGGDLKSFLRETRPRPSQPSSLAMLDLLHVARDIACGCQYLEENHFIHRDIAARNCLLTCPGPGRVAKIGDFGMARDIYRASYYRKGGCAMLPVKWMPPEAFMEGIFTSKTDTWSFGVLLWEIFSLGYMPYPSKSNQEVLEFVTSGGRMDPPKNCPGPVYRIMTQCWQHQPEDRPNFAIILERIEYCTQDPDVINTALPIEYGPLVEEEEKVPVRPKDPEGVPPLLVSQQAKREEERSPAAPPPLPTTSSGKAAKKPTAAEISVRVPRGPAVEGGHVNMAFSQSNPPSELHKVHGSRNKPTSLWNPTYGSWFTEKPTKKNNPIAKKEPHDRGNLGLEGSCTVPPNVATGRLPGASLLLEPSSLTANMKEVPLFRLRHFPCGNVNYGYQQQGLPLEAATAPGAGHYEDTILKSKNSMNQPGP

Nc1ncc(-c2cnn(C3CCNCC3)c2)cc1-c1nc2ccc(NC(=O)Nc3ccccc3)cc2o1
IC50 [1]: 1.66 µM | IC50 [2]: 2.63 µM

Nc1ncc(-c2cnn(C3CCNCC3)c2)cc1-c1nc2ccc(Nc3ccc(F)cc3)cc2o1
IC50 [1]: 3.7 µM | IC50 [2]: 9.3 µM

Cc1ccc(S(=O)(=O)NC(=O)Nc2ccc3nc(-c4cc(-c5cnn(C6CCNCC6)c5)cnc4N)oc3c2)cc1
IC50 [2]: 8.3 µM

CC(=O)Nc1ccc2oc(-c3cc(-c4cnn(C5CCNCC5)c4)cnc3N)nc2c1
IC50 [1]: 3.22 µM | IC50 [2]: 3.06 µM

CNc1ccc2oc(-c3cc(-c4cnn(C5CCNCC5)c4)cnc3N)nc2c1
IC50 [2]: 6.32 µM

Nc1ncc(-c2cnn(C3CCNCC3)c2)cc1-c1nc2ccc(O)c(-c3ccccc3)c2o1
IC50 [2]: 9.7 µM

Cc1c(O)ccc2nc(-c3cc(-c4cnn(C5CCNCC5)c4)cnc3N)oc12
IC50 [1]: 2.2 µM | IC50 [2]: 13 µM

Nc1ncc(-c2cnn(C3CCNCC3)c2)cc1-c1nc2ccc(Oc3ncccn3)cc2o1
IC50 [1]: 3.1 µM | IC50 [2]: > 10 µM

Cc1cc2nc(-c3cc(-c4cnn(C5CCNCC5)c4)cnc3N)oc2cc1O
IC50 [2]: 2.14 µM

Nc1ccc2nc(-c3cc(-c4cnn(C5CCNCC5)c4)cnc3N)oc2c1
IC50 [1]: 1.94 µM | IC50 [2]: 6.2 µM

Nc1ccc2oc(-c3cc(-c4cnn(C5CCNCC5)c4)cnc3N)nc2c1
IC50 [2]: 4.22 µM

Nc1ncc(-c2cnn(C3CCNCC3)c2)cc1-c1nc2cc(Nc3ccccc3)ccc2o1
IC50 [1]: 3.5 µM | IC50 [2]: 4.9 µM

CCCCNc1ccc2oc(-c3cc(-c4cnn(C5CCNCC5)c4)cnc3N)nc2c1
IC50 [2]: 5.52 µM

CN(C)c1ccc2oc(-c3cc(-c4cnn(C5CCNCC5)c4)cnc3N)nc2c1
IC50 [1]: 1.76 µM | IC50 [2]: 8.27 µM

CCCNc1ccc2oc(-c3cc(-c4cnn(C5CCNCC5)c4)cnc3N)nc2c1
IC50 [2]: 3.19 µM

Nc1ncc(-c2cnn(C3CCNCC3)c2)cc1-c1nc2cc(-c3ccccc3)ccc2o1
IC50 [1]: 4.5 µM | IC50 [2]: > 10 µM

Nc1ncc(-c2cnn(C3CCNCC3)c2)cc1-c1nc2ccc(N3CCCCC3)cc2o1
IC50 [1]: 4.3 µM | IC50 [2]: 10.1 µM

Nc1ncc(-c2cnn(C3CCNCC3)c2)cc1-c1nc2ccc(N3CCOCC3)cc2o1
IC50 [1]: 0.81 µM | IC50 [2]: 5.3 µM

Nc1ncc(-c2cnn(C3CCNCC3)c2)cc1-c1nc2ccc(N3CCCC3)cc2o1
IC50 [2]: 0.46 µM | IC50 [3]: 0.34 µM | IC50 [4]: 0.008 µM

CC(C)Nc1ccc2nc(-c3cc(-c4cnn(C5CCNCC5)c4)cnc3N)oc2c1
IC50 [2]: > 10 µM

Nc1ncc(-c2cnn(C3CCNCC3)c2)cc1-c1nc2ccc(Nc3cc(C(F)(F)F)cc(C(F)(F)F)c3)cc2o1
IC50 [1]: 4.2 µM | IC50 [2]: 5.7 µM

Nc1ncc(-c2cnn(C3CCNCC3)c2)cc1-c1nc2ccc(Nc3c(F)cccc3F)cc2o1
IC50 [1]: 4.7 µM | IC50 [2]: 11.5 µM

Nc1ncc(-c2cnn(C3CCNCC3)c2)cc1-c1nc2ccc(Nc3cc(F)cc(F)c3)cc2o1
IC50 [1]: 1.25 µM | IC50 [2]: 2.26 µM

Nc1ncc(-c2cnn(C3CCNCC3)c2)cc1-c1nc2ccc(-c3cn[nH]c3)cc2o1
IC50 [1]: 1.78 µM | IC50 [2]: 10 µM

Nc1ncc(-c2cnn(C3CCNCC3)c2)cc1-c1nc2ccc(OCc3ccccc3)cc2o1
IC50 [1]: 6.9 µM | IC50 [2]: > 10 µM

Nc1ncc(-c2cnn(C3CCNCC3)c2)cc1-c1nc2ccc(Oc3ccccc3)cc2o1
IC50 [1]: 4 µM | IC50 [2]: > 10 µM

Nc1ncc(-c2cnn(C3CCNCC3)c2)cc1-c1nc2ccc(-c3ccc4[nH]ncc4c3)cc2o1
IC50 [1]: 1.14 µM | IC50 [2]: 4.05 µM

Nc1ncc(-c2cnn(C3CCNCC3)c2)cc1-c1nc2ccc(OCc3ccc(F)cc3)cc2o1
IC50 [1]: 1.31 µM | IC50 [2]: 11.9 µM

Nc1ncc(-c2cnn(C3CCNCC3)c2)cc1-c1nc2ccc(Oc3ccc(F)cc3)cc2o1
IC50 [1]: 7.9 µM | IC50 [2]: > 10 µM

Nc1ncc(-c2cnn(C3CCNCC3)c2)cc1-c1nc2ccc(Oc3cc(Cl)ccn3)cc2o1
IC50 [1]: 5.7 µM | IC50 [2]: 17 µM

N#Cc1ccnc(Oc2ccc3nc(-c4cc(-c5cnn(C6CCNCC6)c5)cnc4N)oc3c2)c1
IC50 [1]: 3.6 µM | IC50 [2]: 8.1 µM

Nc1ncc(-c2cnn(C3CCNCC3)c2)cc1-c1nc2ccc(Oc3ccc(-c4ccccc4)nn3)cc2o1
IC50 [1]: 1.2 µM | IC50 [2]: 3.8 µM

Nc1ncc(-c2cnn(C3CCNCC3)c2)cc1-c1nc2ccc(Nc3ccccn3)cc2o1
IC50 [1]: 4.2 µM | IC50 [2]: 6.05 µM

COc1ccc(N(C(=O)Nc2ccc3nc(-c4cc(-c5cnn(C6CCNCC6)c5)cnc4N)oc3c2)c2ccccc2)cc1
IC50 [2]: 0.66 µM

Nc1ncc(-c2cnn(C3CCNCC3)c2)cc1-c1nc2ccc(NC(=O)Nc3ccc(F)cc3)cc2o1
IC50 [2]: 1.72 µM

Nc1ncc(-c2cnn(C3CCNCC3)c2)cc1-c1nc2ccc(NC(=O)c3ccccc3)cc2o1
IC50 [1]: 3.49 µM | IC50 [2]: 3.19 µM

Nc1ncc(-c2cnn(C3CCNCC3)c2)cc1-c1nc2ccc(NC(=O)c3ccc(C(F)(F)F)cc3)cc2o1
IC50 [1]: 2.83 µM | IC50 [2]: 3.2 µM

Nc1ncc(-c2cnn(C3CCNCC3)c2)cc1-c1nc2ccc(NC(=O)c3ccc(F)cc3)cc2o1
IC50 [2]: 0.96 µM

COc1ccc(C(=O)Nc2ccc3nc(-c4cc(-c5cnn(C6CCNCC6)c5)cnc4N)oc3c2)cc1
IC50 [1]: 2.09 µM | IC50 [2]: 3.97 µM

CS(=O)(=O)Oc1ccc2nc(-c3cc(-c4cnn(C5CCNCC5)c4)cnc3N)oc2c1
IC50 [1]: 6.4 µM | IC50 [2]: > 10 µM

COc1ccc(-c2ccc3nc(-c4cc(-c5cnn(C6CCNCC6)c5)cnc4N)oc3c2)cc1
IC50 [1]: 3.22 µM | IC50 [2]: 3.06 µM

CC(C)NC(=O)c1cc2nc(-c3cc(-c4cnn(C5CCNCC5)c4)cnc3N)oc2cc1O
IC50 [2]: > 10 µM

CN(C)COc1cccc(-c2cnc(N)c(-c3nc4cccc(-c5ccccn5)c4o3)c2)c1
IC50 [1]: 5.1 µM | IC50 [2]: > 10 µM

Nc1ncc(-c2cccc(C(=O)NCCN3CCOCC3)c2)cc1-c1nc2cccc(-c3ccccn3)c2o1
IC50 [2]: > 10 µM

Nc1ncc(-c2cnn(C3CCNCC3)c2)cc1-c1nc2ccc(O)c(-c3ccc4cn[nH]c4c3)c2o1
IC50 [2]: 6.5 µM

COc1ccc(-c2c(O)ccc3nc(-c4cc(-c5cnn(C6CCNCC6)c5)cnc4N)oc23)cc1
IC50 [2]: > 10 µM

CCc1ccc2nc(-c3cc(-c4cnn(C5CCNCC5)c4)cnc3N)oc2c1O
IC50 [1]: 3.4 µM | IC50 [2]: > 10 µM

COc1ccc2nc(-c3cc(-c4cnn(C5CCNCC5)c4)cnc3N)oc2c1-c1ccc2cn[nH]c2c1
IC50 [1]: 2.21 µM | IC50 [2]: 9.16 µM

Nc1ncc(-c2cnn(C3CCNCC3)c2)cc1-c1nc2cc(N3CCCCC3)ccc2o1
IC50 [2]: 0.85 µM

Nc1ncc(-c2cnn(C3CCNCC3)c2)cc1-c1nc2cc(N3CCOCC3)ccc2o1
IC50 [1]: 1.05 µM | IC50 [2]: 6.43 µM

Nc1ncc(-c2cnn(C3CCNCC3)c2)cc1-c1nc2cc(N3CCCC3)ccc2o1
IC50 [2]: 1.65 µM

CN(c1ccccc1)c1ccc2oc(-c3cc(-c4cnn(C5CCNCC5)c4)cnc3N)nc2c1
IC50 [1]: 5.05 µM | IC50 [2]: 13 µM
